From US20260373165A1, “PHARMACEUTICAL COMBINATIONS AND COMPOSITIONS, AND METHODS OF USE THEREOF” (SHENZHEN HIGHTIDE BIOPHARMACEUTICAL LTD., priority 2022, published 2026)
Entries after “also recorded” stand apart in the source; their conditions may differ.

Tests used:
Format in all cases: in vivo, mouse (C57BL/6J male, 60% HFD DIO)
[1] = Example 1: food intake within 24 h; conditions: during administration period, vs model control group
Source text: (§1) After 5-week-old C57BL/6J male mice were acclimatized for 1 week, the weight of each mouse was weighed, and the mice were randomly divided into a control group and a model group by taking the weight as a main index, where 12 mice in the control group were fed with common feed (CD), and the mice in the remaining model group were fed with 60% high-fat feed (60% HFD) for 10-12 weeks to construct a DIO obesity model, with the average body weight being not less than 40 g. The mice fed with 60% HFD were grabbed and acclimatized with a solvent for 3 days, where the acclimatization with a solvent was performed by oral gavage of 0.5% CMC-Na, twice daily.
The food intake, the body weight, the body fat ratio, and the insulin level of the mice were respectively measured, followed by fasting blood glucose level, and the mice were randomly grouped according to Table 3 by taking the body weight as an index, and the remaining ungrouped mice were euthanized. After grouping, each group of mice was administered according to Table 3, the day of administration was defined as DO, and the administration volume of each drug was determined based on the results obtained by the calculation of 5 μL/g× mouse body weight (g). […]

[2] = Example 1: body weight and body weight change rate, combined administration of HTD1801 and empagliflozin in DIO obesity model; conditions: semaglutide 10 nmol/kg s.c. Q3D
Source text: as §1
(§2) The food intake, the body weight, the body fat ratio, and the insulin level of the mice were respectively measured, followed by fasting blood glucose level, and the mice were randomly grouped according to Table 3 by taking the body weight as an index, and the remaining ungrouped mice were euthanized. After grouping, each group of mice was administered according to Table 3, the day of administration was defined as DO, and the administration volume of each drug was determined based on the results obtained by the calculation of 5 μL/g× mouse body weight (g).
(§3) For the combined administration group, the total administration volume was the sum of the administration volumes of two single drugs, and the administration sequence and the administration time were kept consistent at each administration. The mice were continuously fed with high-fat feed during the administration period until the administration was finished. During administration, 2 food intakes were measured per week (difference in feed weights at an interval of 24 h was measured); each group of mice was weighed once daily; postprandial blood glucose levels were measured weekly; blood was collected from the tail tip on day 6 and day 20, respectively, so as to measure fasting blood glucose levels once (blood was collected after fasting from 8:00 am to […]); on day 25 of administration, the body fat ratio and the lean mass of each group of mice were measured by MRI (the measurement period was kept consistent with that before grouping); after 4 weeks of administration intervention (day 28), each group of mice was fasted for 6 h and subjected to OGTT (0 min, 15 min, 30 min, 60 min, 90 min, 120 min) to detect their blood glucose levels, and meanwhile subjected to blood sampling via submaxillary vein (0 min, 15 min, 30 min, about 30 μL of blood sampled each time), and then the blood plasma was separated for detecting the insulin level by ELISA, where the separated blood plasma was more than 10 μL; the next day (D29) at the end of administration was set as the test endpoint, and the mice were fasted for 6 h in the morning and subjected to fasting blood glucose level measurement; subsequently, the mice were euthanized with CO2, blood was collected from the heart of each mouse for analysis, and each group of mice was dissected; the liver and subcutaneous, epididymal and mesenteric fat was collected, photographed and weighed, respectively.

[3] = Example 1: body fat mass by MRI after 25 days
Source text: as §1, §2, §3
After 25 days of administration, the body weight, the body fat mass and the body fat ratio of each animal in groups G1 to G6 were measured and averaged for each group, and the results are shown in Table 5 below, FIG. 4 and FIG. 5.

[4] = Example 1: lean mass by MRI after 25 days
Source text: as §1, §2, §3
After 25 days of administration, the body weight, the Lean weight and the lean ratio of each animal in groups G1 to G5 were measured and averaged for each group, and the results are shown in Table 7 below, FIG. 9 and FIG. 10.

[5] = Example 1: oral glucose tolerance test (OGTT), blood glucose; conditions: for OGTT blood glucose level: HTD1801 200 mpk, empagliflozin 10 mpk (reduced after week 2), semaglutide 10 nmol/kg s.c. Q3D
Source text: as §1, §2, §3

[6] = Example 1: fasting blood glucose level; conditions: semaglutide 10 nmol/kg s.c. Q3D
Source text: as §1, §2
For the combined administration group, the total administration volume was the sum of the administration volumes of two single drugs, and the administration sequence and the administration time were kept consistent at each administration. The mice were continuously fed with high-fat feed during the administration period until the administration was finished. […]
After 20 days of administration, fasting blood glucose level results were measured for each group of animals and are shown in Table 8 below and FIG. 11.

[7] = day 0 (baseline), HTD1801 300 mpk, empagliflozin 15 mpk gavage QD
[8] = day 1, HTD1801 300 mpk, empagliflozin 15 mpk gavage QD
[9] = day 2, HTD1801 300 mpk, empagliflozin 15 mpk gavage QD
[10] = day 3, HTD1801 300 mpk, empagliflozin 15 mpk gavage QD
[11] = day 4, HTD1801 300 mpk, empagliflozin 15 mpk gavage QD
[12] = day 5, HTD1801 300 mpk, empagliflozin 15 mpk gavage QD
[13] = day 6, HTD1801 300 mpk, empagliflozin 15 mpk gavage QD
[14] = day 7, HTD1801 300 mpk, empagliflozin 15 mpk gavage QD
[15] = day 8, HTD1801 300 mpk, empagliflozin 15 mpk gavage QD
[16] = day 9, HTD1801 300 mpk, empagliflozin 15 mpk gavage QD
[17] = day 10, HTD1801 300 mpk, empagliflozin 15 mpk gavage QD
[18] = day 11, HTD1801 300 mpk, empagliflozin 15 mpk gavage QD
[19] = day 12, HTD1801 300 mpk, empagliflozin 15 mpk gavage QD
[20] = day 13, HTD1801 300 mpk, empagliflozin 15 mpk gavage QD
[21] = day 14, HTD1801 300 mpk, empagliflozin 15 mpk gavage QD
[22] = day 15, HTD1801 200 mpk, empagliflozin 10 mpk (reduced after week 2) gavage QD
[23] = day 16, HTD1801 200 mpk, empagliflozin 10 mpk (reduced after week 2) gavage QD
[24] = day 17, HTD1801 200 mpk, empagliflozin 10 mpk (reduced after week 2) gavage QD
[25] = day 18, HTD1801 200 mpk, empagliflozin 10 mpk (reduced after week 2) gavage QD
[26] = day 19, HTD1801 200 mpk, empagliflozin 10 mpk (reduced after week 2) gavage QD
[27] = day 20, HTD1801 200 mpk, empagliflozin 10 mpk (reduced after week 2) gavage QD
[28] = day 21, HTD1801 200 mpk, empagliflozin 10 mpk (reduced after week 2) gavage QD
[29] = day 22, HTD1801 200 mpk, empagliflozin 10 mpk (reduced after week 2) gavage QD
[30] = day 23, HTD1801 200 mpk, empagliflozin 10 mpk (reduced after week 2) gavage QD
[31] = day 24, HTD1801 200 mpk, empagliflozin 10 mpk (reduced after week 2) gavage QD
[32] = day 25, HTD1801 200 mpk, empagliflozin 10 mpk (reduced after week 2) gavage QD
[33] = day 26, HTD1801 200 mpk, empagliflozin 10 mpk (reduced after week 2) gavage QD
[34] = day 27, HTD1801 200 mpk, empagliflozin 10 mpk (reduced after week 2) gavage QD
[35] = day 28, HTD1801 200 mpk, empagliflozin 10 mpk (reduced after week 2) gavage QD
[36] = mean, after 25 days of administration, HTD1801 200 mpk, empagliflozin 10 mpk in last 2 weeks (300/15 mpk before), semaglutide 10 nmol/kg s.c. Q3D
[37] = mean, after 25 days of administration, HTD1801 200 mpk, empagliflozin 10 mpk in last 2 weeks (300/15 mpk before)

OC[C@H]1O[C@@H](c2ccc(Cl)c(Cc3ccc(O[C@H]4CCOC4)cc3)c2)[C@H](O)[C@@H](O)[C@@H]1O [Empagliflozin, empagliflozin]
food intake within 24 h (in words) [1]: comparable to that of the model control group
body weight change (in words) ([2]; after 14 days, reduced dose: HTD1801 200 mpk, empagliflozin 10 mpk): slowly increased
Body weight (mean) [2, 7]: 42.9 g
Body weight change rate [2, 7]: 0.0%
Body weight (mean) [2, 8]: 42.8 g
Body weight change rate [2, 8]: −0.2%
Body weight (mean) [2, 9]: 42.9 g
Body weight change rate [2, 9]: 0.1%
Body weight (mean) [2, 10]: 42.8 g
Body weight change rate [2, 10]: −0.1%
Body weight (mean) [2, 11]: 42.9 g
Body weight change rate [2, 11]: 0.0%
Body weight (mean) [2, 12]: 43.0 g
Body weight change rate [2, 12]: 0.4%
Body weight (mean) [2, 13]: 42.9 g
Body weight change rate [2, 13]: 0.1%
Body weight (mean) [2, 14]: 42.6 g
Body weight change rate [2, 14]: −0.5%
Body weight (mean) [2, 15]: 42.7 g
Body weight change rate [2, 15]: −0.4%
Body weight (mean) [2, 16]: 43.1 g
Body weight change rate [2, 16]: 0.5%
Body weight (mean) [2, 17]: 43.2 g
Body weight change rate [2, 17]: 0.8%
Body weight (mean) [2, 18]: 43.3 g
Body weight change rate [2, 18]: 1.1%
Body weight (mean) [2, 19]: 43.7 g
Body weight change rate [2, 19]: 1.9%
Body weight (mean) [2, 20]: 43.6 g
Body weight change rate [2, 20]: 1.8%
Body weight (mean) [2, 21]: 43.7 g
Body weight change rate [2, 21]: 2.0%
Body weight (mean) [2, 22]: 43.5 g
Body weight change rate [2, 22]: 1.5%
Body weight (mean) [2, 23]: 43.8 g
Body weight change rate [2, 23]: 2.3%
Body weight (mean) [2, 24]: 44.1 g
Body weight change rate [2, 24]: 2.9%
Body weight (mean) [2, 25]: 44.5 g
Body weight change rate [2, 25]: 3.9%
Body weight (mean) [2, 26]: 44.8 g
Body weight change rate [2, 26]: 4.4%
Body weight (mean) [2, 27]: 45.1 g
Body weight change rate [2, 27]: 5.2%
Body weight (mean) [2, 28]: 45.5 g
Body weight change rate [2, 28]: 6.2%
Body weight (mean) [2, 29]: 46.0 g
Body weight change rate [2, 29]: 7.3%
Body weight (mean) [2, 30]: 46.4 g
Body weight change rate [2, 30]: 8.3%
Body weight (mean) [2, 31]: 46.5 g
Body weight change rate [2, 31]: 8.5%
Body weight (mean) [2, 32]: 46.5 g
Body weight change rate [2, 32]: 8.4%
Body weight (mean) [2, 33]: 46.3 g
Body weight change rate [2, 33]: 8.1%
Body weight (mean) [2, 34]: 46.7 g
Body weight change rate [2, 34]: 8.9%
Body weight (mean) [2, 35]: 46.5 g
Body weight change rate [2, 35]: 8.4%
body weight change / weight loss effect (in words) ([2]; within 14 days, HTD1801 300 mpk, empagliflozin 15 mpk gavage QD): basically unchanged in week 1 and gradually increased; also recorded: could not achieve the weight loss effect
body fat mass and body fat ratio (in words) ([3]; after 25 days, relative to control group G2): increased
Body weight ([3]; mean, after 25 days of administration (Table 5), HTD1801 200 mpk, empagliflozin 10 mpk in last 2 weeks (300/15 mpk before), semaglutide 10 nmol/kg s.c. Q3D): 47.53 g
Body fat ratio [3, 36]: 49.13%
Fat (body fat mass) [3, 36]: 23.36 g
lean mass (in words) ([4]; after 25 days, relative to model control group G2): decreased
Body weight ([4]; mean, after 25 days of administration (Table 7), HTD1801 200 mpk, empagliflozin 10 mpk in last 2 weeks (300/15 mpk before)): 47.53 g
Lean (lean mass) [4, 37]: 5.17 g
Lean ratio [4, 37]: 10.92%
OGTT blood glucose level ([5]; day 28, 0 min): 10.97 mmol/L
OGTT blood glucose level ([5]; day 28, 15 min): 19.60 mmol/L
OGTT blood glucose level ([5]; day 28, 30 min): 18.90 mmol/L
OGTT blood glucose level ([5]; day 28, 60 min): 18.18 mmol/L
OGTT blood glucose level ([5]; day 28, 90 min): 14.54 mmol/L
OGTT blood glucose level ([5]; day 28, 120 min (head printed "12 0min")): 15.48 mmol/L
total blood glucose level in OGTT (in words) ([5]; day 28, relative to model control group G2): comparable
Mean fasting blood glucose level [6, 13]: 7.8 mmol/L
Mean fasting blood glucose level ([6]; day 20, HTD1801 200 mpk, empagliflozin 10 mpk (reduced after week 2)): 7.9 mmol/L
